Experimental findings from ChEMBL document CHEMBL4219129, “Design, synthesis and biological evaluation of spiropyrimidinetriones oxazolidinone derivatives as antibacterial agents” (2018) are described below.

By MIC is commonly meant the smallest concentration in the dilution series that meets the test's criterion for growth inhibition. Read a high MIC as a less susceptible organism.

Molecules are shown by their SMILES. ≈ marks a conversion by molar mass, not a printed value.

Format in all cases: functional
The test system of assay [1] is Staphylococcus aureus. Nature of the assay: Antibacterial activity against linezolid-resistant Staphylococcus aureus O-128.
Assay [2] concerns Staphylococcus aureus. Kind of assay: Antibacterial activity against […] Staphylococcus aureus ATCC 13709 SMITH.
Assay [3] has as its system Staphylococcus epidermidis. Kind of assay: Antibacterial activity against Staphylococcus epidermidis ATCC 12228.
Assay [4] deals with Staphylococcus aureus. Kind of assay: Antibacterial activity against methicillin-resistant Staphylococcus aureus USA300 BAA-1556.
For assay [5], the system named is Staphylococcus epidermidis. Kind of assay: Antibacterial activity against linezolid-resistant Staphylococcus epidermidis 1089191.
Assay [6] relates to Escherichia coli. Nature of the assay: Antibacterial activity against TolC-deficient Escherichia coli.
In assay [7] the test system is Staphylococcus aureus. Kind of assay: Antibacterial activity against Staphylococcus aureus Mu50 ATCC 700699.
Assay [8] deals with Staphylococcus aureus. Kind of assay: Antibacterial activity against methicillin-resistant Staphylococcus aureus 562.
In assay [9] the test system is Staphylococcus aureus. Kind of assay: Antibacterial activity against methicillin-resistant Staphylococcus aureus 1201984.
In assay [10] the test system is Escherichia coli. Kind of assay: Antibacterial activity against Escherichia coli MG1655. To be noted: K-12 substr. MG1655.
For assay [11], the system named is Staphylococcus aureus. Nature of the assay: Antibacterial activity against PVL positive Staphylococcus aureus.
The subject of assay [12] is Staphylococcus epidermidis. Nature of the assay: Antibacterial activity against methicillin-resistant Staphylococcus epidermidis ATCC 35984.
For assay [13], the system named is Staphylococcus aureus. Kind of assay: Antibacterial activity against Staphylococcus aureus FDA 209P.
Assay [14] has as its system Staphylococcus epidermidis. Nature of the assay: Antibacterial activity against linezolid-resistant Staphylococcus epidermidis 1117174.
Assay [15] has as its system Staphylococcus aureus. Nature of the assay: Antibacterial activity against methicillin-resistant Staphylococcus aureus DB-00026.
Assay [16] concerns Staphylococcus aureus. Nature of the assay: Antibacterial activity against Staphylococcus aureus ATCC 29213.
Assay [17] deals with Enterococcus faecium. Nature of the assay: Antibacterial activity against Enterococcus faecium 45/146.
Assay [18] deals with Enterococcus faecium. Kind of assay: Antibacterial activity against Enterococcus faecium NLNZ 572.
For assay [19], the system named is Enterococcus faecium. Nature of the assay: Antibacterial activity against vancomycin-resistant Enterococcus faecium 31/132.
In assay [20] the test system is Enterococcus faecium. Kind of assay: Antibacterial activity against linezolid-resistant Enterococcus faecium 303.
For assay [21], the system named is Enterococcus faecium. Nature of the assay: Antibacterial activity against vancomycin-resistant Enterococcus faecium 134.
Assay [22] has as its system Enterococcus faecalis. Kind of assay: Antibacterial activity against linezolid-resistant Enterococcus faecalis ATCC 29212.
Assay [23] has as its system Enterococcus faecalis. Nature of the assay: Antibacterial activity against Enterococcus faecalis ATCC 19434.
The test system of assay [24] is Enterococcus faecalis. Kind of assay: Antibacterial activity against Enterococcus faecalis ATCC 51299.
The subject of assay [25] is Enterococcus faecium. Kind of assay: Antibacterial activity against vancomycin-resistant Enterococcus faecium R1.
Assay [26] relates to Enterococcus faecium. Nature of the assay: Antibacterial activity against vancomycin-resistant Enterococcus faecium 03080 DS.
In assay [27] the test system is Enterococcus faecium. Nature of the assay: Antibacterial activity against Enterococcus faecium ATCC 35667.
The test system of assay [28] is Enterococcus faecalis. Kind of assay: Antibacterial activity against Enterococcus faecalis ATCC 29212.
Assay [29] has as its system Enterococcus faecium. Kind of assay: Antibacterial activity against Enterococcus faecium 575.
The test system of assay [30] is Enterococcus faecium. Kind of assay: Antibacterial activity against vancomycin-resistant Enterococcus faecium 6A.
Assay [31] has as its system Enterococcus faecium. Kind of assay: Antibacterial activity against vancomycin-resistant Enterococcus faecium 32/133.
In assay [32] the test system is Enterococcus faecium. Kind of assay: Antibacterial activity against Enterococcus faecium ATCC 19434.

On to `CC(=O)NC[C@H]1CN(c2ccc(-c3ccc4c(c3)CC3(C(=O)NNC3=O)C3CCCN43)c(F)c2)C(=O)O1` (stereo partly specified), for which the MIC against Staphylococcus aureus [1] is 32 µg/mL (≈ 63.1 µM); against Staphylococcus aureus [2] it was greater than 32 µg/mL; in assay [3] it was 8 µg/mL (≈ 15.8 µM); with Staphylococcus aureus [4], 8 µg/mL (≈ 15.8 µM); in assay [5], greater than 32 µg/mL; against Escherichia coli [6] it was 16 µg/mL (≈ 31.5 µM). Further, the MIC against Staphylococcus aureus [7] was 4 µg/mL (≈ 7.88 µM); against Staphylococcus aureus [8] it was 8 µg/mL (≈ 15.8 µM); with Staphylococcus aureus [9], 16 µg/mL (≈ 31.5 µM); with Escherichia coli [10], greater than 32 µg/mL; in the assay on Staphylococcus aureus [11], 16 µg/mL (≈ 31.5 µM); in [12], 4 µg/mL (≈ 7.88 µM). The MIC in the assay with Staphylococcus aureus [13] was 16 µg/mL (≈ 31.5 µM); in [14], greater than 32 µg/mL; against Staphylococcus aureus [15], 8 µg/mL (≈ 15.8 µM); in the assay with Staphylococcus aureus [16] it was 8 µg/mL (≈ 15.8 µM).

On to `COC(=O)C1(C(=O)OC)Cc2cc(-c3ccc(N4C[C@H](CNC(C)=O)OC4=O)cc3F)ccc2N2CCOCC21` (stereo partly specified), for which the MIC against Staphylococcus aureus [1] was 32 µg/mL (≈ 57.6 µM); in the assay with Staphylococcus aureus [2], greater than 32 µg/mL; in assay [3], 4 µg/mL (≈ 7.2 µM); against Staphylococcus aureus [4], 16 µg/mL (≈ 28.8 µM); in assay [5], greater than 32 µg/mL; in the assay on Escherichia coli [6], 16 µg/mL (≈ 28.8 µM). The MIC in the assay on Staphylococcus aureus [7] is 8 µg/mL (≈ 14.4 µM); in the assay with Staphylococcus aureus [8], 4 µg/mL (≈ 7.2 µM); against Staphylococcus aureus [9], 4 µg/mL (≈ 7.2 µM); with Escherichia coli [10], greater than 32 µg/mL; in the assay on Staphylococcus aureus [11] it was 4 µg/mL (≈ 7.2 µM); in [12], 4 µg/mL (≈ 7.2 µM). In addition, the MIC with Staphylococcus aureus [13] worked out at 16 µg/mL (≈ 28.8 µM); in [14], 32 µg/mL (≈ 57.6 µM); in the assay on Staphylococcus aureus [15], 16 µg/mL (≈ 28.8 µM); in the assay with Staphylococcus aureus [16], 8 µg/mL (≈ 14.4 µM).

For `CC(=O)NC[C@H]1CN(c2ccc(-c3ccc4c(c3)CC3(C(=O)NC(=O)NC3=O)C3CCCN43)c(F)c2)C(=O)O1` (stereo partly specified), the MIC against Enterococcus faecium [17] is 2 µg/mL (≈ 3.73 µM); against Enterococcus faecium [18], 4 µg/mL (≈ 7.47 µM); in the assay on Staphylococcus aureus [1], 16 µg/mL (≈ 29.9 µM); against Staphylococcus aureus [2], 16 µg/mL (≈ 29.9 µM); in the assay with Enterococcus faecium [19], 2 to 4 µg/mL (≈ 3.73 to 7.47 µM); with Enterococcus faecium [20], 16 µg/mL (≈ 29.9 µM). Further, the MIC against Enterococcus faecium [21] was 4 µg/mL (≈ 7.47 µM); in the assay on Enterococcus faecalis [22] it was 4 µg/mL (≈ 7.47 µM); against Enterococcus faecalis [23] it was 2 µg/mL (≈ 3.73 µM); in [3], 2 µg/mL (≈ 3.73 µM); in the assay with Staphylococcus aureus [4] it was 4 µg/mL (≈ 7.47 µM); in assay [5], greater than 32 µg/mL. In addition, the MIC is 2 µg/mL (≈ 3.73 µM) against Escherichia coli [6]; no more than 1 µg/mL in the assay with Staphylococcus aureus [7]; 2 µg/mL (≈ 3.73 µM) in the assay with Staphylococcus aureus [8]; 4 µg/mL (≈ 7.47 µM) against Staphylococcus aureus [9]; greater than 32 µg/mL against Escherichia coli [10]; 2 µg/mL (≈ 3.73 µM) against Staphylococcus aureus [11]. Moreover, the MIC in the assay on Enterococcus faecalis [24] was 2 µg/mL (≈ 3.73 µM); in [12] it was no more than 1 µg/mL; against Staphylococcus aureus [13] it was 4 µg/mL (≈ 7.47 µM); in assay [14] it was 32 µg/mL (≈ 59.8 µM); in the assay on Staphylococcus aureus [15], 2 µg/mL (≈ 3.73 µM); with Enterococcus faecium [25], 2 µg/mL (≈ 3.73 µM). The MIC was 2 µg/mL (≈ 3.73 µM) against Enterococcus faecium [26]; 1 µg/mL (≈ 1.87 µM) against Enterococcus faecium [27]; 2 µg/mL (≈ 3.73 µM) against Enterococcus faecalis [28]; 2 µg/mL (≈ 3.73 µM) in the assay with Staphylococcus aureus [16]; 2 µg/mL (≈ 3.73 µM) with Enterococcus faecium [29]; 1 µg/mL (≈ 1.87 µM) against Enterococcus faecium [30]. Further, the MIC came out at 4 µg/mL (≈ 7.47 µM) against Enterococcus faecium [31] and 2 µg/mL (≈ 3.73 µM) against Enterococcus faecium [32].

Regarding `CC(=O)NC[C@H]1CN(c2ccc(N3CCOCC3)c(F)c2)C(=O)O1` [LINEZOLID], the MIC is 2 to 32 µg/mL (≈ 5.93 to 94.9 µM) against Staphylococcus aureus [1]; 2 to 32 µg/mL (≈ 5.93 to 94.9 µM) against Staphylococcus aureus [2]; 2 µg/mL (≈ 5.93 µM) in the assay with Enterococcus faecium [19]; greater than 32 µg/mL with Enterococcus faecium [20]; 2 µg/mL (≈ 5.93 µM) against Enterococcus faecium [21]; greater than 32 µg/mL with Enterococcus faecalis [22]. Also, the MIC is 2 to 4 µg/mL (≈ 5.93 to 11.9 µM) in assay [3]; 2 to 4 µg/mL (≈ 5.93 to 11.9 µM) against Staphylococcus aureus [4]; greater than 32 µg/mL in assay [5]; 2 to 8 µg/mL (≈ 5.93 to 23.7 µM) in the assay with Escherichia coli [6]; 2 to 4 µg/mL (≈ 5.93 to 11.9 µM) against Staphylococcus aureus [8]; greater than 32 µg/mL in the assay on Escherichia coli [10]. Besides, the MIC against Staphylococcus aureus [11] is 0.5 to 4 µg/mL (≈ 1.48 to 11.9 µM); in assay [12], 2 µg/mL (≈ 5.93 µM); in the assay with Staphylococcus aureus [13] it was 4 to 32 µg/mL (≈ 11.9 to 94.9 µM); in assay [14], greater than 32 µg/mL; in the assay on Staphylococcus aureus [15] it was 2 to 4 µg/mL (≈ 5.93 to 11.9 µM); against Enterococcus faecium [25], 4 µg/mL (≈ 11.9 µM). Moreover, the MIC against Enterococcus faecium [26] is 2 µg/mL (≈ 5.93 µM); with Enterococcus faecium [27] it was 0.5 µg/mL (≈ 1.48 µM); against Staphylococcus aureus [16], 2 to 4 µg/mL (≈ 5.93 to 11.9 µM); against Enterococcus faecium [29] it was 2 µg/mL (≈ 5.93 µM); with Enterococcus faecium [32], 2 to 4 µg/mL (≈ 5.93 to 11.9 µM).

In the case of `CN[C@H](CC(C)C)C(=O)N[C@H]1C(=O)N[C@@H](CC(N)=O)C(=O)N[C@H]2C(=O)N[C@H]3C(=O)N[C@H](C(=O)N[C@H](C(=O)O)c4cc(O)cc(O)c4-c4cc3ccc4O)[C@H](O)c3ccc(c(Cl)c3)Oc3cc2cc(c3O[C@@H]2O[C@H](CO)[C@@H](O)[C@H](O)[C@H]2O[C@H]2C[C@](C)(N)[C@H](O)[C@H](C)O2)Oc2ccc(cc2Cl)[C@H]1O` [VANCOMYCIN], the MIC with Enterococcus faecium [19] is greater than 32 µg/mL; with Enterococcus faecalis [22] it was 2 µg/mL (≈ 1.38 µM); against Enterococcus faecalis [24], greater than 32 µg/mL; against Enterococcus faecalis [28], 2 µg/mL (≈ 1.38 µM).
